Source: ChEMBL document CHEMBL1821633, “Norcantharimide analogues possessing terminal phosphate esters and their anti-cancer activity” (2011)

What was measured:
Assay type in all cases: functional
A-431 = assay: Antiproliferative activity against human A431 cells after 72 hrs by MTT assay; settings: A-431, 72 h
SW480 = assay: Antiproliferative activity against human SW480 cells after 72 hrs by MTT assay; settings: SW480, 72 h
[1] = Antiproliferative activity against human BE(2)-C cells after 72 hrs by MTT assay
A2780 = assay: Antiproliferative activity against human A2780 cells after 72 hrs by MTT assay; settings: A2780, 72 h
[2] = Antiproliferative activity against human SJ-G2 cells after 72 hrs by MTT assay; settings: SJ-G2, 72 h
MCF7 = assay: Antiproliferative activity against human MCF7 cells after 72 hrs by MTT assay; settings: MCF7, 72 h
NCI-H460 = assay: Antiproliferative activity against human H460 cells after 72 hrs by MTT assay; settings: NCI-H460, 72 h
DU-145 = assay: Antiproliferative activity against human DU145 cells after 72 hrs by MTT assay; settings: DU-145, 72 h
HT-29 = assay: Antiproliferative activity against human HT-29 cells after 72 hrs by MTT assay; settings: HT-29, 72 h

| GI50 (A-431) | GI50 (SW480) | GI50 (A2780) | GI50 (MCF7) | GI50 (NCI-H460) | GI50 (DU-145) | GI50 (HT-29) | SMILES | GI50 [1] | GI50 [2] |
| --- | --- | --- | --- | --- | --- | --- | --- | --- | --- |
| 27 µM | 18 µM | 15 µM | 28 µM | 49 µM | 21 µM | 33 µM | CCOP(=O)(OCC)OCCN1C(=O)[C@@H]2[C@H](C1=O)[C@H]1CC[C@@H]2O1 | – | 43 µM |
| 47 µM | 33 µM | 22 µM | 50 µM | 89 µM | 36 µM | 57 µM | CCOP(=O)(OCC)O[C@H]1CCCC[C@@H]1N1C(=O)[C@@H]2[C@H](C1=O)[C@H]1CC[C@@H]2O1 | 31 µM | 60 µM |
| > 100 µM | > 100 µM | > 100 µM | > 100 µM | > 100 µM | > 100 µM | > 100 µM | CCOP(=O)(OCC)OCCCCN1C(=O)[C@@H]2[C@H](C1=O)[C@H]1CC[C@@H]2O1 | > 100 µM | > 100 µM |
| 48 µM | 69 µM | 39 µM | 54 µM | > 100 µM | 69 µM | 56 µM | O=C1[C@@H]2[C@H](C(=O)N1[C@H]1CCCC[C@@H]1OP(=O)(OCC(Cl)(Cl)Cl)OCC(Cl)(Cl)Cl)[C@H]1CC[C@@H]2O1 | 51 µM | 45 µM |
| 18 µM | 17 µM | 16 µM | 16 µM | 29 µM | 26 µM | 15 µM | O=C1[C@@H]2[C@H](C(=O)N1CCCCCOP(=O)(OCC(Cl)(Cl)Cl)OCC(Cl)(Cl)Cl)[C@H]1CC[C@@H]2O1 | 22 µM | 19 µM |
| > 100 µM | > 100 µM | > 100 µM | > 100 µM | > 100 µM | > 100 µM | > 100 µM | O=C1[C@@H]2[C@H](C(=O)N1CCOP(=O)(OCC(Cl)(Cl)Cl)OCC(Cl)(Cl)Cl)[C@H]1CC[C@@H]2O1 | > 100 µM | > 100 µM |
| > 100 µM | > 100 µM | > 100 µM | > 100 µM | > 100 µM | > 100 µM | > 100 µM | CCOP(=O)(OCC)OCCCCCCN1C(=O)[C@@H]2[C@H](C1=O)[C@H]1CC[C@@H]2O1 | > 100 µM | > 100 µM |
| > 100 µM | > 100 µM | > 100 µM | > 100 µM | > 100 µM | > 100 µM | > 100 µM | O=C1[C@@H]2[C@H](C(=O)N1CCCCCCO)[C@H]1CC[C@@H]2O1 | > 100 µM | > 100 µM |
| 12 µM | 10 µM | 7.7 µM | 12 µM | 13 µM | 13 µM | 11 µM | O=C1[C@@H]2[C@H](C(=O)N1CCCCCCOP(=O)(OCC(Cl)(Cl)Cl)OCC(Cl)(Cl)Cl)[C@H]1CC[C@@H]2O1 | 9.3 µM | 14 µM |
| 31 µM | 32 µM | 26 µM | 28 µM | 56 µM | 49 µM | 16 µM | O=C1[C@@H]2[C@H](C(=O)N1CCCCOP(=O)(OCC(Cl)(Cl)Cl)OCC(Cl)(Cl)Cl)[C@H]1CC[C@@H]2O1 | 40 µM | 48 µM |
| > 100 µM | > 100 µM | > 100 µM | > 100 µM | > 100 µM | > 100 µM | > 100 µM | CCOP(=O)(OCC)OCCCCCN1C(=O)[C@@H]2[C@H](C1=O)[C@H]1CC[C@@H]2O1 | > 100 µM | > 100 µM |
| 80 µM | 72 µM | 47 µM | 60 µM | 78 µM | > 100 µM | 57 µM | O=C1[C@@H]2[C@H](C(=O)N1CCCOP(=O)(OCC(Cl)(Cl)Cl)OCC(Cl)(Cl)Cl)[C@H]1CC[C@@H]2O1 | 50 µM | 58 µM |

| SMILES | GI50 (A-431) | GI50 (SW480) | GI50 (A2780) | GI50 (MCF7) | GI50 (NCI-H460) | GI50 (DU-145) | GI50 (HT-29) | GI50 [1] | GI50 [2] |
| --- | --- | --- | --- | --- | --- | --- | --- | --- | --- |
| O=C1[C@@H]2[C@H](C(=O)N1CCCCOP(=O)(Oc1ccccc1)Oc1ccccc1)[C@H]1CC[C@@H]2O1 | 21 µM | 28 µM | 17 µM | 19 µM | 64 µM | 13 µM | 14 µM | 25 µM | 17 µM |
| O=C1[C@@H]2[C@H](C(=O)N1CCO)[C@H]1CC[C@@H]2O1 | > 100 µM | > 100 µM | > 100 µM | > 100 µM | > 100 µM | > 100 µM | > 100 µM | > 100 µM | > 100 µM |
| O=C1[C@@H]2[C@H](C(=O)N1[C@H]1CCCC[C@@H]1OP(=O)(Oc1ccccc1)Oc1ccccc1)[C@H]1CC[C@@H]2O1 | 26 µM | 26 µM | 24 µM | 14 µM | 48 µM | 35 µM | 11 µM | 28 µM | 31 µM |
| O=C1[C@@H]2[C@H](C(=O)N1CCOP(=O)(Oc1ccccc1)Oc1ccccc1)[C@H]1CC[C@@H]2O1 | > 100 µM | > 100 µM | > 100 µM | > 100 µM | > 100 µM | > 100 µM | > 100 µM | > 100 µM | > 100 µM |
| O=C1OC(=O)C2C3CCC(O3)C12 (stereo not drawn) [DEMETHYL-CANTHARIDIN] | 31 µM | 44 µM | 38 µM | 68 µM | 45 µM | 28 µM | 57 µM | 43 µM | 23 µM |
| O=C1[C@@H]2[C@H](C(=O)N1CCCCCCOP(=O)(Oc1ccccc1)Oc1ccccc1)[C@H]1CC[C@@H]2O1 | 13 µM | 14 µM | 11 µM | 9.1 µM | 25 µM | 7 µM | 5.4 µM | 14 µM | 14 µM |
| O=C1[C@@H]2[C@H](C(=O)N1CCCOP(=O)(Oc1ccccc1)Oc1ccccc1)[C@H]1CC[C@@H]2O1 | > 100 µM | > 100 µM | > 100 µM | > 100 µM | > 100 µM | > 100 µM | > 100 µM | > 100 µM | > 100 µM |
| O=C1[C@@H]2[C@H](C(=O)N1CCCCCOP(=O)(Oc1ccccc1)Oc1ccccc1)[C@H]1CC[C@@H]2O1 | 45 µM | 50 µM | 46 µM | 31 µM | 63 µM | 52 µM | 42 µM | 56 µM | 50 µM |
| O=C1c2ccccc2C(=O)N1CCCOP(=O)(Oc1ccccc1)Oc1ccccc1 | > 100 µM | > 100 µM | > 100 µM | > 100 µM | > 100 µM | > 100 µM | > 100 µM | > 100 µM | > 100 µM |
